Article PMC10597649, “Effect of Astragali radix extract on pharmacokinetic behavior of dapagliflozin in healthy and type 2 diabetic rats” (Frontiers in Pharmacology, 2023)
Like-named read-outs stand apart in the source and are kept apart here.

Key:
[1] = ref Kasichayanula et al., 2011, cited from earlier work
[2] = ref Kasichayanula et al., 2013, cited from earlier work
P-gp = conditions: ref Obermeier et al., 2010; cited from earlier work
[3] = Pharmacokinetics of DAPA in healthy rats (alone or co-administered with ARE), plasma by UPLC-MS/MS; type: in vivo, Sprague Dawley (SD) rats; conditions: for MRT last: read-out: MRT(0-t)
Description: The column temperature was maintained at 40°C. […] The sample injection volume was 2 μL. […] The ion spray voltage was set at […]. […] The source temperature was kept at 200°C. The collision gas was set at low flow rate. […] The samples were processed by the procedure described above.

[4] = for Accuracy (RE, %): rat plasma, n = 6
Description: Stability of DAPA in rat plasma was evaluated by analyzing six replicates of QC samples at low and high concentrations under different conditions. Short-term stability was investigated by keeping the samples at room temperature (25°C) for 12 h and autosampler (4°C) for 24 h, respectively. Freeze-thaw stability was investigated by three freeze-thawing cycles, i.e., the samples were frozen for 7 d at -80°C and thawed 3 h at room temperature for each cycle. Long-term stability was investigated by keeping the samples at -80°C for 1 month.

[5] = CD group: healthy rats, DAPA alone, single intragastric dose 1.05 mg/kg, n = 6, mean ± SD
[6] = CDA group compared to CD group (healthy rats, with ARE versus DAPA alone)
[7] = CDA group: healthy rats, ARE 300 mg/kg intragastric once a day for 7 days + DAPA single dose 1.05 mg/kg on day 7, n = 6, mean ± SD
[8] = CDA-H group: healthy rats, ARE 900 mg/kg once a day for 7 days + DAPA single dose 1.05 mg/kg on day 7, n=6, mean ± SD
[9] = CDA-L group: healthy rats, ARE 300 mg/kg once a day for 7 days + DAPA single dose 1.05 mg/kg on day 7, n=6, mean ± SD
[10] = male, Sprague-Dawley, rat, plasma, po, 1.05 mg/kg, CD group: healthy rats, DAPA alone, single intragastric dose 1.05 mg/kg, n = 6, mean ± SD
[11] = male, Sprague-Dawley, rat, plasma, po, 1.05 mg/kg, CDA-H group: healthy rats, ARE 900 mg/kg once a day for 7 days + DAPA single dose 1.05 mg/kg on day 7, n=6, mean ± SD
[12] = male, Sprague-Dawley, rat, plasma, po, 1.05 mg/kg, CDA-L group: healthy rats, ARE 300 mg/kg once a day for 7 days + DAPA single dose 1.05 mg/kg on day 7, n=6, mean ± SD
[13] = male, Sprague-Dawley, rat, plasma, po, CDA group: healthy rats, ARE 300 mg/kg intragastric once a day for 7 days + DAPA single dose 1.05 mg/kg on day 7, n = 6, mean ± SD

CCOc1ccc(Cc2cc([C@@H]3O[C@H](CO)[C@@H](O)[C@H](O)[C@H]3O)ccc2Cl)cc1 [DAPA, Dapagliflozin]
increase of C max ([1]; patients with mild liver function damage versus healthy subjects): 12%
increase of C max ([1]; patients with moderate liver function damage versus healthy subjects): 12%
increase of C max ([1]; patients with severe liver function damage versus healthy subjects): 40%
increase of C max ([2]; T2DM patients with mild renal function damage versus T2DM patient without): 4%
increase of C max ([2]; T2DM patients with moderate renal function damage versus T2DM patient without): 6%
increase of C max ([2]; T2DM patients with severe renal function damage versus T2DM patient without): 9%
P-gp substrate (P-gp): substrate of P-gp
AUC(0-inf) [3, 5]: 3868.26±344.05 h*(ng/mL)
AUC(0-t) [3, 5]: 3810.20±343.81 h*(ng/mL)
CL [3, 5]: 273.31±25.26 (mL/h)/kg
V [3, 5]: 1425.95 ± 163.28 mL/kg
decrease of MRT [3, 6]: 25.11%
decrease of t max [3, 6]: 55.91%
increase of C max [3, 6]: 30.99%
AUC(0-inf) [3, 7]: 3845.72±851.15 h*(ng/mL)
AUC(0-t) [3, 7]: 3783.24±852.77 h*(ng/mL)
C max [3, 7]: 504.33 ± 99.44 ng/mL
CL [3, 7]: 283.83±58.84 (mL/h)/kg
V [3, 7]: 1570.40 ± 401.41 mL/kg
AUC(0-inf) [3, 8]: 3946.77±756.89 h*(ng/mL)
AUC(0-t) [3, 8]: 3868.01±745.36 h*(ng/mL)
CL [3, 8]: 273.49±46.98 (mL/h)/kg
V [3, 8]: 1554.45 ± 219.69 mL/kg
AUC(0-inf) [3, 9]: 3845.72±851.15 h*(ng/mL)
AUC(0-t) [3, 9]: 3783.24±852.77 h*(ng/mL)
CL [3, 9]: 283.83±58.84 (mL/h)/kg
Cmax [3, 9]: 504.33 ± 99.44 ng/mL
V [3, 9]: 1570.40 ± 401.41 mL/kg
difference of t 1/2, AUC(0-t), AUC(0-inf), V and CL ([3]; between the CD group and the CDA group (healthy rats)): no significant difference
Tmax [3, 10]: 5.67 ± 0.82 h
half-life [3, 10]: 217 ± 12.6 min
Cmax ([3]; male, Sprague-Dawley, rat, plasma, po, 1.05 mg/kg, CD group: healthy rats, DAPA alone, single intragastric dose 1.05 mg/kg, n = 6, mean ± SD, read-out: C max): 385 ± 46 ng/mL
MRT last [3, 10]: 6.89 ± 0.28 h
Tmax [3, 11]: 2.61 ± 0.9 h
half-life [3, 11]: 238 ± 10.2 min
Cmax ([3]; male, Sprague-Dawley, rat, plasma, po, 1.05 mg/kg, CDA-H group: healthy rats, ARE 900 mg/kg once a day for 7 days + DAPA single dose 1.05 mg/kg on day 7, n=6, mean ± SD, read-out: Cmax): 538 ± 123 ng/mL
MRT last [3, 11]: 5.04 ± 0.27 h
Tmax [3, 12]: 2.5 ± 1.22 h
half-life [3, 12]: 228 ± 13.2 min
MRT last [3, 12]: 5.16 ± 0.36 h
Tmax [3, 13]: 2.5 ± 1.22 h
half-life [3, 13]: 228 ± 13.2 min
MRT last [3, 13]: 5.16 ± 0.36 h
Accuracy (RE, %) ([4]; freeze thaw (3 cycles, 7 d at -80°C, thawed 3 h at room temperature), 33.5 ng/mL): -4.72%
Accuracy (RE, %) ([4]; freeze thaw (3 cycles, 7 d at -80°C, thawed 3 h at room temperature), 975 ng/mL): -3.71%
Accuracy (RE, %) ([4]; long term (-80°C, 30d), 33.5 ng/mL): -2.96%
Accuracy (RE, %) ([4]; long term (-80°C, 30d), 975 ng/mL): -2.97%
Accuracy (RE, %) ([4]; refrigerator (4°C, 24 h), 33.5 ng/mL): -1.37%
Accuracy (RE, %) ([4]; refrigerator (4°C, 24 h), 975 ng/mL): -2.63%
Accuracy (RE, %) ([4]; room temperature (25°C, 12 h), 33.5 ng/mL): -1.19%
Accuracy (RE, %) ([4]; room temperature (25°C, 12 h), 975 ng/mL): -2.87%
Stability in the rat plasma ([4]; room temperature (25°C) for 12 h, 4°C for 24 h, -80°C for 30 days, three freeze-thaw cycles): stable
